Experimental data: PMC12473123, “Structure–Function Insights into Quinuclidine-3-One BisQACs: Synthesis, Modulation of Bacterial Resistance, Structure–Activity Relationship, and Biological Profiling” (Pharmaceuticals, 2025)

Experiments:
Assay type in all cases: cell-based
[1] = system: Listeria monocytogenes ATCC 7644; assay: Biofilm inhibition assay (crystal violet); settings: Listeria monocytogenes, ATCC7644, read-out: biofilm inhibition
Protocol: The ability of the candidate compounds to inhibit biofilm formation was evaluated by determining the minimum biofilm inhibitory concentration (MBIC) against the biofilm-forming strains Staphylococcus aureus ATCC 25923 and Listeria monocytogenes ATCC 7644. Overnight bacterial cultures were diluted in fresh, pre-warmed Mueller–Hinton broth (MHB) and incubated at 37 °C with constant shaking at 220 rpm. Once the cultures reached the exponential growth phase (OD600 = 0.3–0.5), they were standardized to a final concentration of 4 × 10^6 CFU/mL.
Aliquots (50 µL) of the standardized bacterial suspension were inoculated into 96-well microtiter plates containing the test compounds at final concentrations of 100, 50, 25, and 12.5 µg/mL. Plates were incubated at 37 °C for 24 to 48 h, depending on the bacterial strain. After incubation, the planktonic cells were carefully aspirated to preserve the integrity of the biofilm layer. Wells were gently rinsed with sterile ultrapure Milli-Q water and air-dried at 60 °C for 1 h to fix the biofilms. Biofilm formation was quantified using a crystal violet (CV) staining method. Wells were stained with 100 µL of 0.1% CV solution and incubated at room temperature for 1 h. Excess dye was removed by rinsing with sterile ultrapure Milli-Q water, followed by air-drying. Bound CV was solubilized with 100 µL of 70% ethanol and incubated for 30 min. The solubilized dye was transferred to a fresh plate, and absorbance was measured at 595 nm using a microplate reader (Bio-Tek EL808, Winooski, VT, USA). Absorbance values were directly proportional to biofilm biomass. Untreated bacterial cultures served as positive controls for biofilm formation, while sterile MHB served as the negative control.

[2] = system: Staphylococcus aureus ATCC 25923; assay: Flow cytometry cell viability (TO/PI staining); settings: at the onset of treatment, concentration not given
Protocol: To gain further insights into the effects of the test compounds on bacterial viability, Staphylococcus aureus ATCC 25923 was analyzed using flow cytometry (NovoCyte Advanteon, Agilent Technologies, Santa Clara, CA, USA). Two independent overnight cultures were diluted 1:10 in fresh Mueller–Hinton broth (MHB) and incubated at 37 °C with shaking at 220 rpm until reaching the early exponential growth phase. Cells were then harvested by centrifugation (4500× g, 10 min, room temperature). One cell pellet was resuspended in a staining buffer composed of phosphate buffer (pH 7.4) supplemented with 1 mM EDTA and 0.1% Tween 20. […] Both preparations were adjusted to a final density of 1 × 10^6 CFU/mL and served as controls for fluorescence compensation alongside an unstained bacterial population. Bacterial viability was assessed using the BD^TM Cell Viability Kit (BD Biosciences, San Jose, CA, USA), which employs thiazole orange (TO) and propidium iodide (PI) for dual fluorescence labeling. […] Flow cytometric analysis enabled the discrimination of live (TO+/PI−), damaged (TO+/PI+), and dead (TO−/PI+) bacterial populations based on their fluorescence profiles, allowing for a time-resolved evaluation of compound-induced cytotoxicity.

[3] = system: panel of clinically relevant bacterial strains; assay: Broth microdilution MIC, summary over the panel; settings: Staphylococcus aureus (including MRSA), Listeria monocytogenes, Escherichia coli
[4] = system: Bacillus cereus ATCC 14579; assay: Broth microdilution MIC; settings: ATCC14579, read-out: Minimum Inhibitory Concentrations (MIC), Bacillus cereus ATCC 14579
[5] = system: Enterococcus faecalis ATCC 29212; assay: Broth microdilution MIC; settings: Enterococcus faecalis, ATCC29212, read-out: Minimum Inhibitory Concentrations (MIC), Enterococcus faecalis ATCC 29212

CCCCCCCCCCCCCCCCNC1C[N+]2(CCCCCC[N+]34CCC(CC3)C(NCCCCCCCCCCCCCCCC)C4)CCC1CC2 (racemic) [2(QC16)6, (±)-1,1′-(Hexane-1,6-diyl) bis(3-(hexadecylamino)quinuclidinium) dibromide]
inhibition at 6.25 µg/mL [1]: 40%
inhibition at 12.5 µg/mL [1]: 69%
inhibition at 25 µg/mL [1]: 81%
inhibition at 50 µg/mL [1]: 88%
inhibition at 100 µg/mL [1]: 89%
cells with signs of membrane damage (TO+/PI+) [2]: over 80%
fully viable cells (TO+/PI−) [2]: < 5%
MIC [3]: 5 to 38 µM

CCCCCCCCCCCCCCCCNC1C[N+]2(CCC[N+]34CCC(CC3)C(NCCCCCCCCCCCCCCCC)C4)CCC1CC2 (racemic) [2(QC16)3, (±)-1,1′-(Propane-1,3-diyl) bis(3-(hexadecylamino)quinuclidinium) dibromide]
inhibition at 6.25 µg/mL [1]: 91%
inhibition at 12.5 µg/mL [1]: 93%
inhibition at 25 µg/mL [1]: 94%
inhibition at 50 µg/mL [1]: 94%
inhibition at 100 µg/mL [1]: 97%
MIC [4]: > 75 µM
MIC [5]: > 75 µM
